From ChEMBL document CHEMBL1201862, “PubChem BioAssay data set” (2004)
Active and inactive are the calls of the source.

Legend:
[1] = tested on: Escherichia coli; experiment: microbe, parasite or virus in culture
[2] = viability of uninfected HEp-2 cells – cell-based, HTS, cytotoxicity control for RSV inhibitor project, dose response (AID 2410); type: functional; details: human respiratory syncytial virus
[3] = cells
[4] = biological target: T1, Low molecular weight phosphotyrosine protein phosphatase (Homo sapiens, UniProt P24666); type: functional; details: read-out: IC50_Mean;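 also: Dose-response confirmation assay measuring inhibition of LMPTP enzyme activity by fluorescence intensity read-out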
T1 sequence (P24666 whole entry): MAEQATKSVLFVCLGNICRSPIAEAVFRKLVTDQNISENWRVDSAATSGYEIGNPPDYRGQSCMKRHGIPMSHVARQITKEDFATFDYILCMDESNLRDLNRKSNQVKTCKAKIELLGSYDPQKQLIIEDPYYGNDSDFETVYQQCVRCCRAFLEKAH

[5] = biological target: Cytochrome P450 3A4 (Homo sapiens, UniProt P08684);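 also: CYP3A4 tested as one member of a cytochrome P450 panel screen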
Cytochrome P450 3A4, sequence (P08684 whole entry): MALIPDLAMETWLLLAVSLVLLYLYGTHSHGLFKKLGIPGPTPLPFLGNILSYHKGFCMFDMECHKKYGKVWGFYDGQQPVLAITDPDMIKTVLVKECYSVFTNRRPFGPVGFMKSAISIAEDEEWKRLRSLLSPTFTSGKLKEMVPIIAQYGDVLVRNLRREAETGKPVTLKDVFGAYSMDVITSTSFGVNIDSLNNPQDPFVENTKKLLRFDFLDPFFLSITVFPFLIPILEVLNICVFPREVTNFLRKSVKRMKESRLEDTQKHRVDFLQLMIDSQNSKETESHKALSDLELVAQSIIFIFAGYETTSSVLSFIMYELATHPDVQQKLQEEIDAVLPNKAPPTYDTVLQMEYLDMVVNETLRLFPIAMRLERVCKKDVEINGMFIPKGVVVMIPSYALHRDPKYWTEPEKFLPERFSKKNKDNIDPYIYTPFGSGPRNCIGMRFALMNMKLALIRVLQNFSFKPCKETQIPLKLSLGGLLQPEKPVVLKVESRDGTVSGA

[6] = biological target: T2, Corticotropin-releasing factor receptor 2/Corticotropin-releasing factor-binding protein (Homo sapiens, UniProt P24387+Q13324); experiment: activators of CRF receptor 2 with binding protein – uHTS hits, confirmation (AID 602473); type: functional; details: read-out: EC50_Mean
T2 sequence (Q13324 whole entry): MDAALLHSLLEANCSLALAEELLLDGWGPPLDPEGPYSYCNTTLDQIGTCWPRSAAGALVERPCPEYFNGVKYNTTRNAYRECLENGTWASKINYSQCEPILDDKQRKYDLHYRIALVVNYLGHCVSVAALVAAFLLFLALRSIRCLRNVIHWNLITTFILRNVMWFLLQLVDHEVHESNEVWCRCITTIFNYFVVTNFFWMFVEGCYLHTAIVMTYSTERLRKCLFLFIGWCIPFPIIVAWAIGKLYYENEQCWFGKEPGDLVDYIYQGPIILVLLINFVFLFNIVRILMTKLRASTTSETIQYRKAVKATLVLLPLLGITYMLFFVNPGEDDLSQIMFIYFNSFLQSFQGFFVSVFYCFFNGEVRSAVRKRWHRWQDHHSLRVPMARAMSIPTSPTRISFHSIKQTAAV
T2 sequence (P24387 whole entry): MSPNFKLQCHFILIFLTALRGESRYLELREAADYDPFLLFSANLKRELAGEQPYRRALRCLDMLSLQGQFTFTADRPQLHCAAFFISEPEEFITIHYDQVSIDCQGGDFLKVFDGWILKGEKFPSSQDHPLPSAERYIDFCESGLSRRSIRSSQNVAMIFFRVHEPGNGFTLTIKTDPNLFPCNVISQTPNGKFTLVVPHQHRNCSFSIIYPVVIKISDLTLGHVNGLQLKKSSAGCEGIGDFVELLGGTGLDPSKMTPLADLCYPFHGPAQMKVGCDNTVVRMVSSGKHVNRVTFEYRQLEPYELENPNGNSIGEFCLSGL

[7] = blockers of CRF-binding protein–CRF-R2 complex – cell-based, uHTS hits, 384-well, dose response (AID 651639); type: functional, Homo sapiens; details: read-out: IC50_Mean
[8] = biological target: T2, Corticotropin-releasing factor receptor 2/Corticotropin-releasing factor-binding protein; experiment: Dose Response confirmation of uHTS hits for small molecule antagonists of the CRF-binding protein and CRF-R2 receptor complex.; type: functional; details: read-out: IC50_Mean

With Cc1nc2scc(-c3ccccc3)c2c(=O)n1/N=C/c1ccco1 the AC50 [1] was 23.4 µM (active).
In the case of CCn1cc(C(=O)O)c(=O)c2cc(F)c(N3CCN(C(=O)Nc4ccccc4)CC3)cc21, the CC50 [2] is reported as > 50 µM (active), the IC50 [3] is reported as 26.9 µM (active) and the IC50 [4] is reported as 73.1 µM (inactive).
With COc1ccc(CNC(C)(C)C)cc1Cl.Cl the AC50 [5] was “inconclusive”.
In the case of O=C(O)C1C(=O)NCC1c1ccccc1 (stereo not given), the AC50 [1] is reported as 24.3 µM (active).
For Cc1nn(Cc2ccc(Cl)cc2)c(C)c1NC(=O)c1ccc([N+](=O)[O-])cc1, the EC50 [6] was > 53 µM (inactive), the IC50 [7] was > 20 µM (inactive) and the IC50 [8] was < 0.368 µM (active).
In the case of CC(C)NC(=O)N1CCC2(CC1)CCN(C(=O)Oc1ccccc1)CC2, the AC50 [5] is reported as “inconclusive”.
